For the assay, the system named is Mycobacterium tuberculosis. Nature of the assay: Antimycobacterial activity against Mycobacterium tuberculosis H37Rv by agar dilution method. The format is functional.

Values after ≈ are worked out from the molar mass of the structure shown.

Regarding `N#CC1=C(N)OC2=C(CCC/C2=C\c2ccccc2Cl)C1c1ccccc1Cl` (centres undefined), the minimum inhibitory concentration (MIC) was above 25 µM.
As for `CN1CC2=C(OC(N)=C(c3nc(-c4ccc(Cl)cc4)no3)C2c2ccc(Cl)cc2)/C(=C/c2ccc(Cl)cc2)C1` (centres undefined), the figure is 0.35 µM (≈ 0.202 µg/mL); as for `CO[C@H]1/C=C/O[C@@]2(C)Oc3c(C)c(O)c4c(O)c(c(/C=N/N5CCN(C)CC5)c(O)c4c3C2=O)NC(=O)/C(C)=C\C=C\[C@H](C)[C@H](O)[C@@H](C)[C@@H](O)[C@@H](C)[C@H](OC(C)=O)[C@@H]1C` [RIFAMPIN], 0.12 µM (≈ 0.0988 µg/mL).
As for `N#CC1=C(N)OC2=C(CCC/C2=C\c2ccccc2)C1c1ccccc1` (centres undefined), the figure is above 25 µM.
For `COc1ccc(/C=C2\CCCC3=C2OC(N)=C(c2nc(-c4ccccc4)no2)[C@@H]3c2ccc(OC)cc2)cc1` the value was 24.1 µM (≈ 12.5 µg/mL); for `NC1=C(c2nc(-c3ccccc3)no2)C(c2cccc(F)c2)C2=C(O1)/C(=C/c1cccc(F)c1)CCC2` (centres undefined), 12.6 µM (≈ 6.26 µg/mL).
`N#CC1=C(N)OC2=C(CCC/C2=C\c2ccc(F)cc2)C1c1ccc(F)cc1` (centres undefined) had an MIC above 25 µM.
For `CN1CC2=C(OC(N)=C(c3nc(-c4ccc(Cl)cc4)no3)[C@@H]2c2cccc(F)c2)/C(=C/c2cccc(F)c2)C1` the value was 0.73 µM (≈ 0.398 µg/mL); for `NC1=C(c2nc(-c3ccccc3)no2)C(c2ccc(Cl)cc2)C2=C(O1)/C(=C/c1ccc(Cl)cc1)CCC2` (centres undefined), 23.7 µM (≈ 12.5 µg/mL).
As for `NNC(=O)c1ccncc1` [ISONIAZID], the figure is 0.36 µM (≈ 0.0494 µg/mL).
For the compound `COc1ccc(/C=C2\CN(C)CC3=C2OC(N)=C(c2nc(-c4ccc(Cl)cc4)no2)C3c2ccc(OC)cc2)cc1` (centres undefined), the MIC came to 22 µM (≈ 12.5 µg/mL).
As for `Cc1ccc(/C=C2\CN(C)CC3=C2OC(N)=C(c2nc(-c4ccc(Cl)cc4)no2)C3c2ccc(C)cc2)cc1` (centres undefined), the figure is 3.28 µM (≈ 1.76 µg/mL); as for `COc1ccc(/C=C2\CCCC3=C2OC(N)=C(C#N)C3c2ccc(OC)cc2)cc1` (centres undefined), above 25 µM; as for `NC1=C(c2nc(-c3ccccc3)no2)C(c2ccc(F)cc2)C2=C(O1)/C(=C/c1ccc(F)cc1)CCC2` (centres undefined), 12.6 µM (≈ 6.26 µg/mL).
In turn, `Cc1ccc(/C=C2\CCCC3=C2OC(N)=C(C#N)C3c2ccc(C)cc2)cc1` (centres undefined) had an MIC above 25 µM.
As for `N#CC1=C(N)OC2=C(CCC/C2=C\c2ccc(Cl)cc2)C1c1ccc(Cl)cc1` (centres undefined), the figure is above 25 µM.
For `Cc1ccccc1/C=C1\CN(C)CC2=C1OC(N)=C(c1nc(-c3ccc(Cl)cc3)no1)C2c1ccccc1C` (centres undefined) the value was 11.6 µM (≈ 6.25 µg/mL); for `COc1ccccc1/C=C1\CN(C)CC2=C1OC(N)=C(c1nc(-c3ccc(Cl)cc3)no1)C2c1ccccc1OC` (centres undefined), 5.5 µM (≈ 3.13 µg/mL); for `CN1CC2=C(OC(N)=C(c3nc(-c4ccc(Cl)cc4)no3)C2c2ccccc2)/C(=C/c2ccccc2)C1` (centres undefined), 12.3 µM (≈ 6.25 µg/mL).
For `CN1CC2=C(OC(N)=C(c3nc(-c4ccc(Cl)cc4)no3)C2c2ccc(Cl)cc2Cl)/C(=C/c2ccc(Cl)cc2Cl)C1` (centres undefined) the value was 0.31 µM (≈ 0.201 µg/mL); for `COc1ccccc1/C=C1\CCCC2=C1OC(N)=C(c1nc(-c3ccccc3)no1)C2c1ccccc1OC` (centres undefined), 24.1 µM (≈ 12.5 µg/mL).
Regarding `CN1CC2=C(OC(N)=C(c3nc(-c4ccc(Cl)cc4)no3)C2c2ccc(N(C)C)cc2)/C(=C/c2ccc(N(C)C)cc2)C1` (centres undefined), 5.26 µM (≈ 3.13 µg/mL) was the least that counted as inhibitory (MIC).
As for `CC[C@@H](CO)NCCN[C@@H](CC)CO` [ETHAMBUTOL], the figure is 7.64 µM (≈ 1.56 µg/mL); as for `Cc1ccccc1/C=C1\CCCC2=C1OC(N)=C(c1nc(-c3ccccc3)no1)C2c1ccccc1C` (centres undefined), above 25 µM.

The record behind these values is ChEMBL document CHEMBL1777730, “Antimycobacterial activity of novel 1,2,4-oxadiazole-pyranopyridine/chromene hybrids generated by chemoselective 1,3-dipolar cycloadditions of nitrile oxides” (2011).
